Experimental data: publication doi:10.1101/2021.04.08.439011v1 (biorxiv, 2021)
Read-outs that look alike come from different tables or passages of the source.

How the values were obtained:
HIPK1 = HIPK1 (Homo sapiens, UniProt Q86Z02); details: 0.1 µM; binder
CSNK2A1 = CSNK2A1 (Homo sapiens, UniProt P68400); details: 0.1 µM; binder
PIK3CA(M1043I) = PIK3CA(M1043I) (Homo sapiens, UniProt P42336, M1043I); details: 0.1 µM; binder
p38-alpha = p38-alpha (Homo sapiens, UniProt Q16539); details: 0.1 µM; binder
YANK1 = YANK1 (Homo sapiens, UniProt Q8WU08); details: 0.1 µM; binder
ERK4 = ERK4 (Homo sapiens, UniProt P31152); details: 0.1 µM; binder
Chain of ERK4 (P31152 whole entry): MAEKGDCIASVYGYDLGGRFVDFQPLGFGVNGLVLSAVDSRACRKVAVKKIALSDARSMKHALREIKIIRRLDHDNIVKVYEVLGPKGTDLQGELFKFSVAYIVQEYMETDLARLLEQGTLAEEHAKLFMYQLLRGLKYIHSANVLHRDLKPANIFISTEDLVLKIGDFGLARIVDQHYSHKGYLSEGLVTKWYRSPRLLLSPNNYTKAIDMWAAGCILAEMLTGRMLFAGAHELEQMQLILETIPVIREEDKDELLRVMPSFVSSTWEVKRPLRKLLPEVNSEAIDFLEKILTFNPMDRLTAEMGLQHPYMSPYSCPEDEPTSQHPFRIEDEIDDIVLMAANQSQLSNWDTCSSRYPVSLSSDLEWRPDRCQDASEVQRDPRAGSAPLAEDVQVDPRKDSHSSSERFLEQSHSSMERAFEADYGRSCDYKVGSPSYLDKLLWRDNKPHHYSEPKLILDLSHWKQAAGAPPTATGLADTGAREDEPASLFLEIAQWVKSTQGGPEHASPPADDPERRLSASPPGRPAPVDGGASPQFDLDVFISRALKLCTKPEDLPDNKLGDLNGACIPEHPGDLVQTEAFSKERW

HIPK3 = HIPK3 (Homo sapiens, UniProt Q9H422); details: 0.1 µM; binder
MAP4K2 = MAP4K2 (Homo sapiens, UniProt Q12851); details: 0.1 µM; binder
Chain of MAP4K2 (Q12851 whole entry): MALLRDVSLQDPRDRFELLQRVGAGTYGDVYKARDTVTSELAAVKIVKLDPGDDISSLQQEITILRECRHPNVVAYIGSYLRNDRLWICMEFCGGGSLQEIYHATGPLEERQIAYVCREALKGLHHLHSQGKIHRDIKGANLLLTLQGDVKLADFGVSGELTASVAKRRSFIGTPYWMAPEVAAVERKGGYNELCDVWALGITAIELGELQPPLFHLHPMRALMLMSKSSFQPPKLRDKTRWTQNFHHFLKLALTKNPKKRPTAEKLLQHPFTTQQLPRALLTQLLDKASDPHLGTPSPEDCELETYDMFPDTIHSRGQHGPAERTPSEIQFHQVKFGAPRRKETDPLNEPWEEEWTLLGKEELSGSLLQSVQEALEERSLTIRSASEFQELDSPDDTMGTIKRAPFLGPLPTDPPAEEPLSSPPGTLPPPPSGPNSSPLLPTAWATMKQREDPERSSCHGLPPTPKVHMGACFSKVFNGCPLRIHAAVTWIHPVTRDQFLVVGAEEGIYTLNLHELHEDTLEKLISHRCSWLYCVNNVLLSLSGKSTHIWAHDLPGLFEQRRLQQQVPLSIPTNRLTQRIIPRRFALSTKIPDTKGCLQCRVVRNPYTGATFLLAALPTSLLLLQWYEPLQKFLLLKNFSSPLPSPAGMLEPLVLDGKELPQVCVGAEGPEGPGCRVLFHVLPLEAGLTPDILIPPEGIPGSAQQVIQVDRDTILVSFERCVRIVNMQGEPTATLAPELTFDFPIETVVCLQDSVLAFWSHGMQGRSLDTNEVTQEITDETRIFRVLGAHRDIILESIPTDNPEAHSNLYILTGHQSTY

BRAF(V600E) = BRAF(V600E) (Homo sapiens, UniProt P15056, V600E); details: 0.1 µM; binder
FGR = FGR (Homo sapiens, UniProt P09769); details: 0.1 µM; binder
AMPK-alpha1 = AMPK-alpha1 (Homo sapiens, UniProt Q13131); details: 0.1 µM; binder
PIP4K2C = PIP4K2C (Homo sapiens, UniProt Q8TBX8); details: 0.1 µM; binder
BLK = BLK (Homo sapiens, UniProt P51451); details: 0.1 µM; binder
Chain of BLK (P51451 whole entry): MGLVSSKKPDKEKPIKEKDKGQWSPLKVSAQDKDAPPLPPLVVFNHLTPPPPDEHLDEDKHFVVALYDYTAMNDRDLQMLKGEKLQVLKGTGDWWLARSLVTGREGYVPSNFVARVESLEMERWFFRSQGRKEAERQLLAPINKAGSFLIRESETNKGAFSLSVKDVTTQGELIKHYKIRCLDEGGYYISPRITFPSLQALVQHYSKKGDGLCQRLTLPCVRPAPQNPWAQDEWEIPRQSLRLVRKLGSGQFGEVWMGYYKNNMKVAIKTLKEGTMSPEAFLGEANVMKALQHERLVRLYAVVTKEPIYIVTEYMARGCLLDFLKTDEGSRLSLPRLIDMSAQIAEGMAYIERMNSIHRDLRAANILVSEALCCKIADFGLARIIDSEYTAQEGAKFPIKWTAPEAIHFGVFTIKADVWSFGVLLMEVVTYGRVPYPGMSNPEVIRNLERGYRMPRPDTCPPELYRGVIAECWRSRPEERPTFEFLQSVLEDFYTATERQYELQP

EPHA6 = EPHA6 (Homo sapiens, UniProt Q9UF33); details: 0.1 µM; binder
EPHB3 = EPHB3 (Homo sapiens, UniProt P54753); details: 0.1 µM; binder
MAST1 = MAST1 (Homo sapiens, UniProt Q9Y2H9); details: 0.1 µM; binder
MKK7 = MKK7 (Homo sapiens, UniProt O14733); details: 0.1 µM; binder
PAK6 = PAK6 (Homo sapiens, UniProt Q9NQU5); details: 0.1 µM; binder
FLT3(ITD,D835V) = FLT3(ITD,D835V) (Homo sapiens, UniProt P36888, D835V/ITD); details: 0.1 µM; binder
TGFBR1 = TGFBR1 (Homo sapiens, UniProt P36897); details: 0.1 µM; binder
MARK2 = MARK2 (Homo sapiens, UniProt Q7KZI7); details: 0.1 µM; binder
NLK = NLK (Homo sapiens, UniProt Q9UBE8); details: 0.1 µM; binder
ABL1 = ABL1 (Homo sapiens, UniProt P00519); details: 0.1 µM, binder
Chain of ABL1 (P00519 whole entry): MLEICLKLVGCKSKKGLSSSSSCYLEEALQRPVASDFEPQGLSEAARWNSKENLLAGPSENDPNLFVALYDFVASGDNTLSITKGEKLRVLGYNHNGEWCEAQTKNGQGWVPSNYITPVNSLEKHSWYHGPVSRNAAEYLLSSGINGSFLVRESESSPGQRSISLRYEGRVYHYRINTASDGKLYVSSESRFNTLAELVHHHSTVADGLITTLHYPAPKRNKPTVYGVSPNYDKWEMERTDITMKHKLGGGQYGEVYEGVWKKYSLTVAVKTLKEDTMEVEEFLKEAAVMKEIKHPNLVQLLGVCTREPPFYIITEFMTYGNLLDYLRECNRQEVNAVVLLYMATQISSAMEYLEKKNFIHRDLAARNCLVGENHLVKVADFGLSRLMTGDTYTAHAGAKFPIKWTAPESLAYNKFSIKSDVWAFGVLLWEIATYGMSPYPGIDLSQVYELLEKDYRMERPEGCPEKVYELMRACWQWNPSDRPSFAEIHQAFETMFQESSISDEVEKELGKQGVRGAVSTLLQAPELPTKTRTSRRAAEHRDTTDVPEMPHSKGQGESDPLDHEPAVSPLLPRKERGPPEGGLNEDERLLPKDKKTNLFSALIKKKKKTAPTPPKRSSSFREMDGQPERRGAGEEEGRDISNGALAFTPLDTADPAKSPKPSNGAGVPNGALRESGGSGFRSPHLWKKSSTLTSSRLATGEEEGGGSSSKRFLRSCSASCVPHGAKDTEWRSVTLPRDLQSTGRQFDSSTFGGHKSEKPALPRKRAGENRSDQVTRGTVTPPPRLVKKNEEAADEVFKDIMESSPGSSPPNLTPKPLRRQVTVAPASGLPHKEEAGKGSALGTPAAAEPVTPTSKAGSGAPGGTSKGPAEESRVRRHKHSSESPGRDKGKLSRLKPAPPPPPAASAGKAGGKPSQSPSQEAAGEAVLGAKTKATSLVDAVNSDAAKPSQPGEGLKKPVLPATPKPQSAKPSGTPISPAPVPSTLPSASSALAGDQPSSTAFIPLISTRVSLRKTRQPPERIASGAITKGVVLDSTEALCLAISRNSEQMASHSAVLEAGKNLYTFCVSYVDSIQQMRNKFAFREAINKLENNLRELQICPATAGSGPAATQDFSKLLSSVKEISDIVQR

ULK1 = ULK1 (Homo sapiens, UniProt O75385); details: 0.1 µM; binder
PIK3CA(E542K) = PIK3CA(E542K) (Homo sapiens, UniProt P42336, E542K); details: 0.1 µM; binder
Chain of PIK3CA(E542K) (P42336 whole entry E542K): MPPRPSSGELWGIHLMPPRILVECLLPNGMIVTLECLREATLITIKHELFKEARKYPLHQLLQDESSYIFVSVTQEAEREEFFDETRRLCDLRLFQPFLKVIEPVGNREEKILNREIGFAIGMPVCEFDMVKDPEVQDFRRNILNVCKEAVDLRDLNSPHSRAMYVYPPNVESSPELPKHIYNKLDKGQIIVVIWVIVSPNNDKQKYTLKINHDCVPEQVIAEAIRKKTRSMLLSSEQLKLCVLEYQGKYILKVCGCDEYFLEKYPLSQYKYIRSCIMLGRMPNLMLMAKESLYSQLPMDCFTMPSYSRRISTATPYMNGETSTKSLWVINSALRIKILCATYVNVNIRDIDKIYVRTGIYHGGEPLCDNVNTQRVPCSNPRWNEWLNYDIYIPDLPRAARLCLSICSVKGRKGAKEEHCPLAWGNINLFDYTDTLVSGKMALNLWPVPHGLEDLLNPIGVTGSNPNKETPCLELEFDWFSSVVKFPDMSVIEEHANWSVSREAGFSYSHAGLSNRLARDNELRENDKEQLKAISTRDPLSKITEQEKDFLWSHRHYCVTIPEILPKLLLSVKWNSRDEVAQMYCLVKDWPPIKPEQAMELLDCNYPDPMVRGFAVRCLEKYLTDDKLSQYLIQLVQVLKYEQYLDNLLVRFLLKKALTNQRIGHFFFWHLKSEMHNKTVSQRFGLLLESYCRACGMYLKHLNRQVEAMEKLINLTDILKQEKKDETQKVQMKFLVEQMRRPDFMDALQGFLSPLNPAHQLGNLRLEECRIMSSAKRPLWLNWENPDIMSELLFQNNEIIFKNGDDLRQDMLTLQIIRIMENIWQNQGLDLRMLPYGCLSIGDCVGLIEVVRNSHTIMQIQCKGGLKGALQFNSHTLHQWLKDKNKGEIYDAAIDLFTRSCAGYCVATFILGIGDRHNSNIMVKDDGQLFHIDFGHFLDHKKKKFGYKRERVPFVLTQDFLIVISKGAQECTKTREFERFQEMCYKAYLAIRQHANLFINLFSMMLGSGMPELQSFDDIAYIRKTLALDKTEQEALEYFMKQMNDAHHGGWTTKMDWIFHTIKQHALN

HPK1 = HPK1 (Homo sapiens, UniProt Q92918); details: 0.1 µM; binder
NEK5 = NEK5 (Homo sapiens, UniProt Q6P3R8); details: 0.1 µM; binder
CDK4 = CDK4 (Homo sapiens, UniProt P11802); details: 0.1 µM; binder
Chain of CDK4 (P11802 whole entry): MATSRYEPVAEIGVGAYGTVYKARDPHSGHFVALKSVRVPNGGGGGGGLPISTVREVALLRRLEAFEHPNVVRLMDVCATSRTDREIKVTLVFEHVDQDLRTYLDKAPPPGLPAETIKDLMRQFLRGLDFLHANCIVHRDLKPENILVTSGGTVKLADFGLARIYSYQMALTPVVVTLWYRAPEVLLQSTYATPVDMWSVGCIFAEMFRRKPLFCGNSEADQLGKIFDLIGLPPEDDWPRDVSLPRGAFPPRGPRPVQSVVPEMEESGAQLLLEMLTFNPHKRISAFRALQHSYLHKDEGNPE

CDK8 = CDK8 (Homo sapiens, UniProt P49336); details: 0.1 µM; binder
Chain of CDK8 (P49336 whole entry): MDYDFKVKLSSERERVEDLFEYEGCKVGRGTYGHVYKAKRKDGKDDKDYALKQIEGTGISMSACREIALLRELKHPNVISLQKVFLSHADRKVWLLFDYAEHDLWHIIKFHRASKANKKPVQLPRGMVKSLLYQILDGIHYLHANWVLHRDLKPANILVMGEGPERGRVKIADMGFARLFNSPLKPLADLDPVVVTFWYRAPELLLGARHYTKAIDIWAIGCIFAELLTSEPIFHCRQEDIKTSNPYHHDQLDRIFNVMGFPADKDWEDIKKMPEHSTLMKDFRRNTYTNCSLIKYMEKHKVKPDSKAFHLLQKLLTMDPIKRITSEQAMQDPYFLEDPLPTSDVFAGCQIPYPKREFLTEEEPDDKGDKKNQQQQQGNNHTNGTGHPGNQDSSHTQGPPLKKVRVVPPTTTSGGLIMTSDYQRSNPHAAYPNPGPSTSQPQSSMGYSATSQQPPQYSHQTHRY

YSK1 = YSK1 (Homo sapiens, UniProt O00506); details: 0.1 µM; binder
TIE2 = TIE2 (Homo sapiens, UniProt Q02763); details: 0.1 µM; binder

Chain of PIK3CA(M1043I) (P42336 whole entry M1043I): as the sequence (P42336 whole entry E542K) above, with K542E, M1043I counted along it

## CNc1ncc2cc(-c3ccc(-c4cccc(C)n4)cc3Cl)c(=O)n(C[C@H]3OC[C@H](N)CO3)c2n1 [compound 6, G-5555]
HIPK1
  Percent Control: 100%
CSNK2A1
  Percent Control: 88%
PIK3CA(M1043I)
  Percent Control: 76%
p38-alpha
  Percent Control: 100%
YANK1
  Percent Control: 5.3%
ERK4
  Percent Control: 100%
HIPK3
  Percent Control: 86%
MAP4K2
  Percent Control: 63%
BRAF(V600E)
  Percent Control: 100%
FGR
  Percent Control: 100%
AMPK-alpha1
  Percent Control: 95%
PIP4K2C
  Percent Control: 79%
BLK
  Percent Control: 100%
EPHA6
  Percent Control: 100%
EPHB3
  Percent Control: 100%
MAST1
  Percent Control: 47%
MKK7
  Percent Control: 86%
PAK6
  Percent Control: 92%
FLT3(ITD,D835V)
  Percent Control: 88%
TGFBR1
  Percent Control: 99%
MARK2
  Percent Control: 100%
NLK
  Percent Control: 73%
ABL1; nonphosphorylated
  Percent Control: 94%
ABL1; phosphorylated
  Percent Control: 95%
ULK1
  Percent Control: 100%
PIK3CA(E542K)
  Percent Control: 89%
HPK1
  Percent Control: 78%
NEK5
  Percent Control: 100%
CDK4
  Percent Control: 100%
CDK8
  Percent Control: 100%
YSK1
  Percent Control: 40%
TIE2
  Percent Control: 87%
